# Molecular target: Bcl-2 G101V (Homo sapiens, UniProt P10415, G101V)
# Assay: Bcl-2 G101V inhibition, fluorescence polarization (Flu-BIM tracer) binding assay
# Conditions: FP; 20 nM Bcl2, 5 nM Flu-BIM, 1 h incubation; read-out: Bcl-2 G101V (FP)
row,SMILES,IC50
1,"CC1(C)CCC(CN2CCN(c3ccc(C(=O)NS(=O)(=O)c4ccc(NC[C@H]5CC[C@](C)(O)CC5)c([N+](=O)[O-])c4)c(Oc4cnc5[nH]ccc5c4)c3)CC2)=C(c2cc(-c3c(F)cc(C(C)(O)C4CC4)cc3F)cs2)C1 (stereo partly drawn) [Example 69, 2-((1H-pyrrolo[2,3-b]pyridin-5-yl)oxy)-4-(4-((2-(4-(4-(1-cyclopropyl-1-hydroxyethyl)-2,6-difluorophenyl)thiophen-2-yl)-4,4-dimethylcyclohex-1-en-1-yl)methyl)piperazin-1-yl)-N-((4-((((1r,4r)-4-hydroxy-4-methylcyclohexyl)methyl)amino)-3-nitrophenyl)sulfonyl)benzamide]",29 nM
2,"CC1(C)CCC(CN2CCN(c3ccc(C(=O)NS(=O)(=O)c4ccc(NCC5CCOCC5)c([N+](=O)[O-])c4)c(Oc4cnc5[nH]ccc5c4)c3)CC2)=C(c2csc(C(F)(F)F)c2)C1 [Example 3, 2-((1H-pyrrolo[2,3-b]pyridin-5-yl)oxy)-4-(4-((4,4-dimethyl-2-(5-(trifluoromethyl)thiophen-3-yl)cyclohex-1-en-1-yl)methyl)piperazin-1-yl)-N-((3-nitro-4-(((tetrahydro-2H-pyran-4-yl)methyl)amino)phenyl)sulfonyl)benzamide]",45.6 nM
3,"CC1(C)CCC(CN2CCN(c3ccc(C(=O)NS(=O)(=O)c4ccc(NC[C@H]5CC[C@](C)(O)CC5)c([N+](=O)[O-])c4)c(Oc4cnc5[nH]ccc5c4)c3)CC2)=C(c2cc(-c3ccc(C(C)(C)O)cc3F)cs2)C1 [Example 62, 2-((1H-pyrrolo[2,3-b]pyridin-5-yl)oxy)-4-(4-((2-(4-(2-fluoro-4-(2-hydroxypropan-2-yl)phenyl)thiophen-2-yl)-4,4-dimethylcyclohex-1-en-1-yl)methyl)piperazin-1-yl)-N-((4-((((1r,4r)-4-hydroxy-4-methylcyclohexyl)methyl)amino)-3-nitrophenyl)sulfonyl)benzamide]",23.7 nM
4,"CC1(C)CCC(CN2CCN(c3ccc(C(=O)NS(=O)(=O)c4ccc(NC[C@H]5CC[C@](C)(O)CC5)c([N+](=O)[O-])c4)c(Oc4cnc5[nH]ccc5c4)c3)CC2)=C(c2cc(-c3ccc(C(C)(C)O)cc3)cs2)C1 [Example 59, 2-((1H-pyrrolo[2,3-b]pyridin-5-yl)oxy)-N-((4-((((1r,4r)-4-hydroxy-4-methylcyclohexyl)methyl)amino)-3-nitrophenyl)sulfonyl)-4-(4-((2-(4-(4-(2-hydroxypropan-2-yl)phenyl)thiophen-2-yl)-4,4-dimethylcyclohex-1-en-1-yl)methyl)piperazin-1-yl)benzamide]",38.5 nM
5,"CC1(C)CCC(CN2CCN(c3ccc(C(=O)NS(=O)(=O)c4ccc(NC[C@H]5COCCO5)c([N+](=O)[O-])c4)c(Oc4cnc5[nH]ccc5c4)c3)CC2)=C(c2cc(-c3ccc(F)cc3F)cs2)C1 [Example 42, (S)—N-((4-(((1,4-dioxan-2-yl)methyl)amino)-3-nitrophenyl)sulfonyl)-2-((1H-pyrrolo[2,3-b]pyridin-5-yl)oxy)-4-(4-((2-(4-(2,4-difluorophenyl)thiophen-2-yl)-4,4-dimethylcyclohex-1-en-1-yl)methyl)piperazin-1-yl)benzamide]",50.7 nM
6,"CC1(C)CCC(CN2CCN(c3ccc(C(=O)NS(=O)(=O)c4ccc(NC[C@H]5CC[C@](C)(O)CC5)c([N+](=O)[O-])c4)c(Oc4cnc5[nH]ccc5c4)c3)CC2)=C(c2cc(-c3cc(C(C)(C)O)ccc3F)cs2)C1 [Example 75, 2-((1H-pyrrolo[2,3-b]pyridin-5-yl)oxy)-4-(4-((2-(4-(2-fluoro-5-(2-hydroxypropan-2-yl)phenyl)thiophen-2-yl)-4,4-dimethylcyclohex-1-en-1-yl)methyl)piperazin-1-yl)-N-((4-((((1r,4r)-4-hydroxy-4-methylcyclohexyl)methyl)amino)-3-nitrophenyl)sulfonyl)benzamide]",34.3 nM
7,"CC1(C)CCC(CN2CCN(c3ccc(C(=O)NS(=O)(=O)c4ccc(NCC5CCOCC5)c([N+](=O)[O-])c4)c(Oc4cnc5[nH]ccc5c4)c3)CC2)=C(c2csc(CN3CCOCC3)c2)C1 [Example 21, 2-((1H-pyrrolo[2,3-b]pyridin-5-yl)oxy)-4-(4-((4,4-dimethyl-2-(5-(morpholinomethyl)thiophen-3-yl)cyclohex-1-en-1-yl)methyl)piperazin-1-yl)-N-((3-nitro-4-(((tetrahydro-2H-pyran-4-yl)methyl)amino)phenyl)sulfonyl)benzamide]",64.2 nM
8,"CC1(C)CCC(CN2CCN(c3ccc(C(=O)NS(=O)(=O)c4ccc(NC[C@H]5CC[C@](C)(O)CC5)c([N+](=O)[O-])c4)c(Oc4cnc5[nH]ccc5c4)c3)CC2)=C(c2cc(-c3ccc(F)cc3F)cs2)C1 [Example 43, 2-((1H-pyrrolo[2,3-b]pyridin-5-yl)oxy)-4-(4-((2-(4-(2,4-difluorophenyl)thiophen-2-yl)-4,4-dimethylcyclohex-1-en-1-yl)methyl)piperazin-1-yl)-N-((4-((((1r,4r)-4-hydroxy-4-methylcyclohexyl)methyl)amino)-3-nitrophenyl)sulfonyl)benzamide]",33.7 nM
9,"CC1(C)CCC(CN2CCN(c3ccc(C(=O)NS(=O)(=O)c4ccc(NC[C@H]5COCCO5)c([N+](=O)[O-])c4)c(Oc4cnc5[nH]ccc5c4)c3)CC2)=C(c2cc(Nc3ncccn3)cs2)C1 [Example 19, (S)—N-((4-(((1,4-dioxan-2-yl)methyl)amino)-3-nitrophenyl)sulfonyl)-2-((1H-pyrrolo[2,3-b]pyridin-5-yl)oxy)-4-(4-((4,4-dimethyl-2-(4-(pyrimidin-2-ylamino)thiophen-2-yl)cyclohex-1-en-1-yl)methyl)piperazin-1-yl)benzamide]",40.9 nM
10,"CC1(C)CCC(CN2CCN(c3ccc(C(=O)NS(=O)(=O)c4ccc(NC[C@H]5COCCO5)c([N+](=O)[O-])c4)c(Oc4cnc5[nH]ccc5c4)c3)CC2)=C(c2cc(CN3CCN(C4COC4)CC3)cs2)C1 [Example 31, (S)—N-((4-(((1,4-dioxan-2-yl)methyl)amino)-3-nitrophenyl)sulfonyl)-2-((1H-pyrrolo[2,3-b]pyridin-5-yl)oxy)-4-(4-((4,4-dimethyl-2-(4-((4-(oxetan-3-yl)piperazin-1-yl)methyl)thiophen-2-yl)cyclohex-1-en-1-yl)methyl)piperazin-1-yl)benzamide]",59.2 nM
11,"CC(C)c1csc(C2=C(CN3CCN(c4ccc(C(=O)NS(=O)(=O)c5ccc(NCC6CCOCC6)c([N+](=O)[O-])c5)c(Oc5cnc6[nH]ccc6c5)c4)CC3)CCC(C)(C)C2)c1 [Example 8, 2-((1H-pyrrolo[2,3-b]pyridin-5-yl)oxy)-4-(4-((2-(4-isopropylthiophen-2-yl)-4,4-dimethylcyclohex-1-en-1-yl)methyl)piperazin-1-yl)-N-((3-nitro-4-(((tetrahydro-2H-pyran-4-yl)methyl)amino)phenyl)sulfonyl)benzamide]",30.9 nM
12,"CC1(C)CCC(CN2CCN(c3ccc(C(=O)NS(=O)(=O)c4ccc(NC[C@H]5CC[C@](C)(O)CC5)c([N+](=O)[O-])c4)c(Oc4cnc5[nH]ccc5c4)c3)CC2)=C(c2cc3c(s2)CCN(c2ccc(F)cc2)C3)C1 [Example 16, 2-((1H-pyrrolo[2,3-b]pyridin-5-yl)oxy)-4-(4-((2-(5-(4-fluorophenyl)-4,5,6,7-tetrahydrothieno[3,2-c]pyridin-2-yl)-4,4-dimethylcyclohex-1-en-1-yl)methyl)piperazin-1-yl)-N-((4-((((1r,4r)-4-hydroxy-4-methylcyclohexyl)methyl)amino)-3-nitrophenyl)sulfonyl)benzamide]",94.7 nM
